According to US4567201A, “Diphenoxypropane derivatives and compositions of antiasthmatic and antiinflammatory agents thereof” (Takeda Chemical Industries, Ltd., priority 1981, dated 1986):
pIC50: −log10 of the molar value. Where two headings read alike, the source gives them in different places. Each block holds one molecule with its values, some of them ahead of it.

How the values were obtained:
[1] = system: leukotriene D4 (LTD4)-induced contraction of the guinea pig ileum; assay: Anti-SRS-A activity: inhibition of LTD4-induced contraction of guinea pig ileum; settings: 50% inhibition of LTD4-induced contraction (60-70% of maximum contraction), drug added 1 minute before LTD4
Description: The present inventors studied the antagonistic action of compound (I)-A against SRS-A using a synthetic LTD4 in the following manner.
The inhibitory effect of the drug on the contractile response (60-70% of maximum contraction) of the ileum of guinea pig (body weight 300-350 g, female and male) to leukotriene D4 (LTD4) was investigated. In Tyrode solution containing atropine (10^-7 M) and mepyramine (10^-6 M), 3×10^-10 or 10^-9 M of LTD4 was repeatedly permitted to act on the guinea pig ileum and after the amplitude of contraction had become constant, a solution of the test drug was added to a final concentration of 10^-9 to 10^-4 M. After 1 minute, the same concentration of LTD4 was further added and the anti-SRS-A activity of the drug was calculated from the change in contraction amplitude by means of the following equation. [formula]
To obtain the IC50 value, the mole concentration of the drug showing a 50% inhibition of the contractile response was determined from plots on a graph.
The drug was used as dissolved in dimethyl sulfoxide. The solvent was used in an amount less than 1% which would not exert any influence on the ileum.

[2] = system: antigen-induced bronchoconstriction; assay: Antigen-induced bronchoconstriction in sensitized guinea pigs; format: in vivo, guinea pig (Hartley strain); settings: for % Inhibition: 2 minutes prior to antigen (EA 1 mg/kg i.v.), one minute after antigen; for minimal effective dose: Cavia porcellus, iv, 2 minutes prior to antigen administration, read-out: minimum effective dose; for inhibitory effect on the antigen-induced bronchoconstriction compared with Control compound-1 (in words): i.v., 2 minutes prior to antigen
Protocol: According to the method of Orange and Moore [Orange, R. P. and Moore, E. G., Journal of Immunology, 116, 392-397 (1976)], Hartley-strain male guinea pigs weighing about 350 g were sensitized by intraperitoneal administration of 1 ml of an emulsion composed of 0.5 ml of physiological saline containing 1 mg of egg alubumin (EA) and 0.5 ml of Freund's complete adjuvant (Difco, USA). Three weeks after the sensitization, the serum antibody levels in the sensitized guinea pigs were determined by the 3-hour PCA reaction in guinea pigs and those guinea pigs that gave positive results in the PCA reaction with 1,000-fold diluted serum samples therefrom were used as the sensitized aminals. Using the Konzett-Rossler method as mentioned under the above paragraph (i), the bronchoconstriction due to the antigen-antibody reaction was induced by intravenous administration of 1 mg/kg of the antigen EA instead of LTD4, and recorded.
The bronchoconstriction in the control group as induced by antigen administration 2 minutes after the intravenous administration of physiological saline reached a maximum one minute after the intravenous administration of the antigen. Gradual recovery followed and the pretreatment state was almost restored in 15 minutes after the induction. Repeated experiments using 6 animals per group gave mean degrees of maximum bronchoconstriction (one-minute values) of 72.8-83.3% as compared with the state of complete obstruction (100%). The test compounds (I)-B-1, (I)-B-2 and Control compound-1 were each intravenously administered 2 minutes prior to antigen administration and the inhibitory effect on the bronchoconstriction was examined. The minimum effective doses were 5, 5 and 20 mg/kg, respectively, and the corresponding inhibition percentages were 51, 52 and 64%, respectively.
The test compounds were intravenously administered 2 minutes prior to
intravenous administration of the antigen.
Each value was calculated from the volume (in percentage) of air
overflowing from the respiratory tract at the time when the response was
maximal, i.e. one minute after administration of the antigen.

Acute toxicity in mice = format: in vivo, mouse (Jcl:ICR strain); settings: 500 mg/kg oral; for Autopsy findings: after 7 days; for symptoms attributable to compound after oral administration: male mice
Protocol: Five 5-week-old male mice of Jcl:ICR strain, weighing 26.0 to 30.5 g, were used. Compound (I)-A-1 was suspended in a 5% solution of gum arabic and administered orally by gastric gavage at the level of 0.2 ml per 10 grams body weight.
Five 5-week-old male mice of Jcl:ICR strain, weighing 26.0 to 30.5 g, were used. Compound (I)-B-1 or (I)-B-2 was suspended in a 5% solution of gum arabic and administered orally by gastric gavage at the level of 0.2 ml per 10 grams body weight.

[3] = system: bronchoconstriction due to leukotriene D4 (LTD4); assay: Inhibition of bronchoconstriction due to intravenous LTD4 in guinea pigs (Konzett-Rossler); format: in vivo, guinea pig (Hartley strain); settings: for % Inhibition, Experiment 1: 2 minutes before LTD4 10 μg/kg i.v.; for % Inhibition, Experiment 1 / % Inhibition, Experiment 2: 30 seconds after LTD4; for % Inhibition, Experiment 2: 30 minutes before LTD4 10 μg/kg i.v.; for minimal effective dose: Cavia porcellus, iv, dose causing statistically significant difference vs control group, significance level <5%; for inhibitory effect upon the bronchoconstriction compared with Control compound-1 (in words): LTD4, i.v.
Protocol: Guinea pigs of Hartley strain, both male and female, with body weights about 400 g were assigned to groups of 6 individuals, and the bronchoconstriction due to LTD4 were measured according to the method of Konzett-Rossler, [Konzett, H. and Rossler, R.: Naunyn-Schmiedebergs Archiv Fur Experimentelle Pathologie und Pharmakologie 195, 71-74 (1940)]. Each guinea pig was fixed in supine position under urethane anesthesia (1.5 g/kg, intraperitoneal) and the trachea was incised and connected to an artificial respiration apparatus, Rodent Respirator Model 680 [Harvard Apparatus Company, U.S.A.] via a cannula. The branch tube of this tracheal cannula was connected to Bronchospasm Transducer Model 7020 [Ugobasil Biological Research Apparatus, Italy]. Under the conditions of 5 to 7 ml of air per stroke, 70 strokes per minute and a lung loading pressure of 10 cmH2 O, the volume of overflowing air was recorded on Rectigraph-8S (Sanei Sokki Ltd., Japan) via a transducer. After administration of gallamine triethiodide (1 mg/kg, i.v.), 10 μ g/kg of histamine.2HCl was intravenously administered to investigate the response of the animal. Then, a solution of LTD4 in physiological saline (10 μg/kg) was intravenously administered and the bronchoconstriction elicited thereby was recorded for 15 minutes. Two minutes before LTD4 loading, compound (I)-A-1 was intravenously administered in a volume of 0.1 ml per 100 g body weight. Compound (I)-A-1 and LTD4 were administered through a cannula inserted into the jugular vein.
The compound (I)-A-1 was used as dissolved in physiological saline containing sodium hydrogen carbonate, and LTD4 was taken from a stock stored in methanol (1 mg/1 ml methanol) at -70° C.
The bronchoconstriction induced by intravenous administration of 10 μg/kg of LTD4 as given 2 minutes after the administration of physiological saline was maximal at the time of 30 seconds after the administration of LTD4 and, since then, was rapidly attenuated to about 50% at the time of 2 minutes but lasted till 15 minutes. Assuming that the response at complete obstruction is 100%, the values at 30 seconds and 15 minutes were 47.4±6.9% (n=6, Mean±S.E.) and 19.4±2.8% (Mean±S.E.), respectively (S.E.: standard error).
Then the present inventors studied the antagonistic action of the compound (I)-B against SRS-A using a synthetic LTD4 in the manner described on the compound (I)-A.
In each case, the bronchoconstriction following intravenous administration of 10 μg/kg of LTD4 at 2 or 30 minutes after the administration of physiological saline reached a maximum 30 seconds after the administration of LTD4, and then decreased to about 50% at 2 minutes after the administration of LTD4. The response continued for 15 minutes after the administration of LTD4. Repeated experiments using 6 animals per group gave mean degrees of maximum bronchoconstriction (30-second values) of 52.2-67.1% and 54.7-70.1%, respectively, as compared with the state of complete obstruction (100%). In experiment 1, the test compounds (I)-B-1, (I)-B-2 and Control compound-1 were each intravenously administered at two minutes before the administration of LTD4 and inhibitory effect on the bronchoconstriction was examined. The minimum effective doses (causing statistically significant differences as compared with the control group; significance level <5%) were 0.313, 0.313 and 5 mg/kg, respectively. The corresponding inhibition percentages were 41, 52 and 56%, respectively. In experiment 2, the test compounds were intravenously administered 30 minutes before the administration of LTD4 and the effect on the above response was examined. The minimum effective doses were 5, 5, and 20 mg/kg, respectively.
The test compounds were intravenously administered 2 minutes before the
intravenous administration of 10 μg/kg of LTD4.
The test compounds were intravenously administered 30 minutes before the
Each value was calculated from the volume (in percentage) of air […]

[4] = 5 mg/kg i.v., p<0.001 for (I)-B-1, p<0.01 for (I)-B-2
[5] = 1.25 mg/kg i.v., **P<0.01 for (I)-B-1 and (I)-B-2
[6] = 5 mg/kg i.v., P<0.001 for (I)-B-1 and Control compound-1, P<0.01 for (I)-B-2
[7] = 5 mg/kg i.v., **P<0.01 for (I)-B-1 and (I)-B-2
[8] = 20 mg/kg i.v., P<0.001 for (I)-B-1 and (I)-B-2, P<0.01 for Control compound-1
[9] = 30 minutes before LTD4, read-out: minimum effective dose, experiment 2
[10] = two minutes before LTD4, read-out: minimum effective dose, experiment 1

SMILES: CCCc1c(OCC(O)COc2ccc(C(=O)O)cc2Cl)ccc(C(C)=O)c1O (stereo not shown) [Compound (I)-B-1, 4-[3-(4-acetyl-3-hydroxy-2-n-propylphenoxy)-2-hydroxypropoxy]-3-chlorobenzoic acid]
% Inhibition ([2]; 1.25 mg/kg i.v.): 6% | % Inhibition [2, 4]: 51% | % Inhibition ([2]; 20 mg/kg i.v., ***p<0.001): 75% | minimal effective dose [2]: 5 mg/kg | inhibitory effect on the antigen-induced bronchoconstriction compared with Control compound-1 (in words) [2]: superior to Control compound-1 | Autopsy findings (Acute toxicity in mice): did not reveal any abnormalities | symptoms attributable to compound after oral administration (Acute toxicity in mice): no symptoms | % Inhibition, Experiment 1 ([3]; 0.313 mg/kg i.v., *P<0.05): 41% | % Inhibition, Experiment 1 [3, 5]: 51% | % Inhibition, Experiment 1 [3, 6]: 84% | % Inhibition, Experiment 2 [3, 7]: 42% | % Inhibition, Experiment 2 [3, 8]: 96% | minimal effective dose [3, 9]: 5 mg/kg | minimal effective dose [3, 10]: 0.313 mg/kg | inhibitory effect upon the bronchoconstriction compared with Control compound-1 (in words) [3]: superior to Control compound-1

SMILES: CCCc1c(OCCCOc2ccc(-c3nnn[nH]3)cc2Cl)ccc(C(C)=O)c1O [Compound (I)-A-3, 1-(4-acetyl-3-hydroxy-2-n-propylphenoxy)-3-[2-chloro-4-(tetrazol-5-yl)phenoxy]propane]
pIC50 [1]: 7.15

SMILES: CCCc1c(OCC(O)COc2ccc(-c3nn[nH]n3)cc2Br)ccc(C(C)=O)c1O (stereo not shown) [Compound (I)-A-2, 2-hydroxy-3-propyl-4-[2-hydroxy-3-[2-bromo-4-(tetrazol-5-yl)phenoxy]propoxy]acetophenone]
pIC50 [1]: 7.72

SMILES: CCCc1c(OCCCOc2ccc(C(=O)O)cc2Cl)ccc(C(C)=O)c1O [Compound (I)-B-2, 4-[3-(4-acetyl-3-hydroxy-2-n-propylphenoxy)propoxy]-3-chlorobenzoic acid]
% Inhibition ([2]; 1.25 mg/kg i.v.): 20% | % Inhibition [2, 4]: 52% | % Inhibition ([2]; 20 mg/kg i.v., ***p<0.001): 88% | minimal effective dose [2]: 5 mg/kg | inhibitory effect on the antigen-induced bronchoconstriction compared with Control compound-1 (in words) [2]: superior to Control compound-1 | Autopsy findings (Acute toxicity in mice): did not reveal any abnormalities | symptoms attributable to compound after oral administration (Acute toxicity in mice): no symptoms | % Inhibition, Experiment 1 ([3]; 0.313 mg/kg i.v., *P<0.05): 52% | % Inhibition, Experiment 1 [3, 5]: 77% | % Inhibition, Experiment 2 ([3]; 1.25 mg/kg i.v.): 10% | % Inhibition, Experiment 1 [3, 6]: 79% | % Inhibition, Experiment 2 [3, 7]: 42% | % Inhibition, Experiment 2 [3, 8]: 66% | minimal effective dose [3, 9]: 5 mg/kg | minimal effective dose [3, 10]: 0.313 mg/kg | inhibitory effect upon the bronchoconstriction compared with Control compound-1 (in words) [3]: superior to Control compound-1

Further lines, with some results ahead:

pIC50 [1]: 6.17
SMILES: CCCc1c(OCCCOc2cccc(-c3nn[nH]n3)c2)ccc(C(C)=O)c1O [Control compound-2, reference compound]

pIC50 [1]: 6.38
SMILES: CCCc1c(OCCCOc2ccc(C(=O)O)c(O)c2)ccc(C(C)=O)c1O [Control compound-1, reference compound]
% Inhibition ([2]; 1.25 mg/kg i.v.): 12% | % Inhibition [2, 4]: 16% | % Inhibition ([2]; 20 mg/kg i.v., ***p<0.001): 64% | minimal effective dose [2]: 20 mg/kg | % Inhibition, Experiment 1 [3, 5]: 14% | % Inhibition, Experiment 1 [3, 6]: 56% | % Inhibition, Experiment 2 [3, 7]: 14% | % Inhibition, Experiment 1 ([3]; 20 mg/kg i.v., ***P<0.001): 87% | % Inhibition, Experiment 2 [3, 8]: 35% | minimal effective dose [3, 9]: 20 mg/kg | minimal effective dose [3, 10]: 5 mg/kg
